Measurements from patent US8290713B2, “Method for predicting protein aggregation and designing aggregation inhibitors” (Lonza Biologics PLLC, priority 2006, dated 2012).

Molecular target: ASYN (α-synuclein) (Homo sapiens, UniProt P37840)
Experiment: ASYN aggregation assay in TBS monitored by thioflavin T fluorescence
Format: biochemical
Details: 50 μM ASYN, 100 μM inhibitor, 50 mM tris, 150 mM NaCl, 20 μM Thioflavin T, 37 C with shaking, 48 hours; sigmoidal fit
Method: All peptides were tested for inhibition of ASYN aggregation in TBS by carrying out aggregation assays with 50 μM ASYN and 100 μM inhibitor with 50 mM tris and 150 mM NaCl and 20 μM Thioflavin T. The reaction volume was 200 μL. Each reaction was set up in a 96 well polypropylene plate with ASYN only and buffer only controls. The reactions were incubated at 37 C with shaking for 48 hours and aggregation was monitored by reading thioflavin T fluorescence.
The kinetic traces were fitted using Zyentiafit software which fits the data to a Sigmoidal function f(x)=k+A/(1+exp(−b(t−t0))) from which the lag time, rate of aggregation and total change in ThT fluorescence may be calculated.

Ac-hpviva-NH2 [ZP-0164]
% decrease in ThT fluorescence: 3.7%
% decrease in rate of aggregation: −2.3%
% increase in Lag phase: 43.0%
